“Also recorded” adds a separate entry of the source.

Data on eleven molecules can be found in patent US20260212953A1, “An Integrative Framework to Identify Therapeutic Molecules for Treating Preterm Birth” (The Regents of the University of California, priority 2023, published 2026).

Data set [1] deals with primary human uterine smooth muscle cells (HUtSMC). As to the kind of experiment: Collagen gel contraction assay. It is filed as cell-based. The conditions noted are these: for effect on HUtSMC contraction, contractile state stimulated by oxytocin: 100 nM oxytocin, OXY+DMSO as control; for reduction of oxytocin-induced myometrial contractility: on average over the four named pre-clinical drugs; for effect on HUtSMC contraction, quiescent state: PBS+DMSO as control. The source says:
We performed experiments to determine the functional roles of the small molecules in regulating labor timing. Because labor onset is hallmarked by muscle contraction in the uterus, we asked whether these small molecules could alter smooth muscle contraction in the uterus. We performed collagen gel contraction assays on primary human uterine smooth muscle cells (HUtSMC) (Ying et al., 2015) to examine the modes of action of the top 9 candidate drugs from our prediction (FIG. 5D). For each drug, we tested its effect on modulating HUtSMC contractility in stimulated (by oxytocin to mimic labor-like phenotypes) and quiescent states by treating cells with oxytocin and vehicle, respectively. In either condition, we determined the pharmacological effects of our identified compounds on cellular contraction (each with at least 8 replicates).
Primary Human Uterine Smooth Muscle Cells (HUISMC) were purchased from PromoCells (Cat #C-12575, Fisher Scientific, MA). Collagen gel contraction assays were performed following (Kita et al., 2008; Ying et al., 2015) with modifications. Briefly, 150 ul of collagen (Cat #5074, SigmaAldrich) was added to each well in a 48-well plate. 80,000 HUtSMC suspension in 300 ul Smooth Muscle Cell Growth Basal Medium (Lonza #CC-3181) were seeded to each well after collagen polymerization for an hour. The cells were then treated with either testing compounds or DMSO in the presence of 100 nM oxytocin or PBS control. We carefully detached the collagen from the wells by tips after 1 hour incubation at 37° C., and fixed the cells with 4% paraformaldehyde in PBS for 30 minutes after 18 hours to ensure the equivalent culture durations for all groups before imaging. We captured bright-field images with microscope systems (AmScope, Irvine, CA), and measured the gel diameters in the captured images by ImageJ where the fold changes to no cell control were taken for statistical analysis. At least three biological replicates were performed for each compound, and technically triplicates were included in each biological replicate. Information about small molecules in the study could be found in Table 4.

The next data set has as its system recurrent preterm labor. The data set is described as follows: Weekly 17-OHPC injections in women with previous spontaneous preterm labor (longitudinal cohort). The conditions noted are these: number among 48 study participants; 250 mg weekly i.m., 16 to 36 weeks of gestation. It is filed as in vivo, human. On the procedure: We performed a longitudinal patient recruitment in Alabama. The study involved 48 study participants who had previous history of spontaneous preterm labor (Supplementary Table 5 for patient information). All women admitted to the study were with singleton pregnancy and received weekly intramuscular injections of Makena 17-OHPC 250 mg beginning at 16 weeks until 36 weeks of gestation. Among the 48 study participants, 28 were considered responders to the treatment and delivered at term, whereas the remaining 20 were considered non-responders and had spontaneous preterm birth after the treatment. We acknowledged the possibility that those considered to be responders might include individuals who delivered at term owing to other reasons and not affected by the treatment. However, if we could observe genetic factors indeed differentiating the two groups, especially those involved in progesterone signaling, the observation then should be explained by progestin treatment.
We performed longitudinal recruitment of 48 women in Alabama who had previous history of spontaneous preterm labor. All women admitted to the study were with singleton pregnancy and received weekly intramuscular injections of Makena OHP 250 mg beginning at 16 weeks until 36 weeks of gestation. This study was approved by Stanford Institutional Review Board (IRB #21956). […]

The next data set relates to preterm labor. The conditions noted are these: chronic treatment; cited from earlier work.
The next data set relates to HUtSMCs. The data set is described as follows: Cell viability of HUtSMCs treated with different concentrations of RKI-1447. It is filed as cell-based, human. The source says:
These experimental data provided quantitative guidance on its potential clinical deployment. […] As a potent inhibitor of the Rho-kinases ROCKI/II, RKI-1447 has been mainly investigated for therapeutic effects on cancer (Dyberg et al., 2019; Li et al., 2020; Patel et al., 2012), glaucoma (Cush et al., 1995), and nonalcoholic fatty liver disease (Wang and Jiang, 2020), with less focus on putative effects on modulating uterine contractility. […] These observations provided mechanistic basis for our drug discovery and experimental observations (FIGS. 5E and 5F).

The subject of a further data set is uterine contractility. The conditions noted are these: in vivo; cited from earlier work.
For data set [2], the system named is smooth muscle cells in other organs. The conditions noted are these: literature curation; cited from earlier work.
Another data set relates to preterm birth. The conditions noted are these: daily low-dose; women of their first pregnancies; cited from earlier work.
The subject of data set [3] is primary myometrial cell cultures. As to the kind of experiment: RNA-Seq of primary myometrial cell cultures treated with FSK or IL-1B (Stanfield et al., 2019a). It is filed as cell-based, human. The conditions noted are these: published RNA-Seq data re-examined; P=0.68. The source says: Performing functional enrichment analysis, we observed that the 69 Group I genes were highly enriched for functions associated with the regulation of muscle contraction (FDR=8.10e-4), more specifically with relaxation of muscle (FDR=2.71e-3, FIG. 3H). This explained their elevated expression prior to labor as well as their down-regulation upon delivery to promote muscle contractility.
Note that inflammatory factors are known to promote muscle contractility during labor (Khanjani et al., 2011; Mendelson et al., 2019), explaining the down-regulation of Group II genes before labor and their activation during labor. We examined primary myometrial cell cultures treated with IL-1B to mimic tissue-level inflammation at the labor onset (Stanfield et al., 2019a). […] In fact, Group-II genes included a key inflammatory activators AP-1 (with its subunits JUN and FOS), which play a central role in regulating smooth muscle contractility proteins at labor onset (Mendelson et al., 2019).
We downloaded normalized FPKM gene expression matrix of RNA-seq data (GSE134896 and GSE163773) (Ackerman et al., 2021; Stanfield et al., 2019a) from GEO for primary myometrial cell cultures following treatment with Forskolin and Interleukin-1B, and for primary myometrium samples harvested from 31 women at labor. […]

As for `Brc1c(Br)c(Br)c2[nH]nnc2c1Br` [4,5,6,7-tetrabromobenzotriazole], in data set [1], the “effect on HUtSMC contraction, contractile state stimulated by oxytocin” value (from here on “effect on HUtSMC contraction … by oxytocin”) was “attenuated myometrial contraction”; the “effect on myometrial cell contractility in either quiescent or contractile state” value is on record as “altered myometrial contractility”; the “reduction of oxytocin-induced myometrial contractility” value was determined as 15.73%. Besides, the “effect on HUtSMC contraction … by oxytocin” value in data set [1] (listed as TBBt) is reported as “attenuated oxytocin-induced myometrial contractility”.
As to `CCCCCC(=O)O[C@]1(C(C)=O)CC[C@H]2[C@@H]3CCC4=CC(=O)CC[C@]4(C)[C@H]3CC[C@@]21C` [17-OHPC, 17-hydroxyprogesterone caproate], in the data set with recurrent preterm labor, the “non-responders (spontaneous preterm birth after the treatment)” value came out at 20 and the “responders (delivered at term)” value is on record as 28.
Regarding `O=c1cc(N2CCOCC2)oc2c(-c3ccccc3)cccc12` [LY294002], the “reduction of oxytocin-induced myometrial contractility” value in data set [1] came out at 15.73%.
For the molecule `COc1cccc(-c2cc(=O)c3ccccc3o2)c1N` [PD-98059], the “effect on myometrial cell contractility in either quiescent or contractile state” value in data set [1] is recorded as “absence of signal”. In addition, in the data set with preterm labor, the “efficacy in a rat model of preterm labor” value is on record as “demonstrated efficacy”.
For the molecule `O=C(NCc1cccc(O)c1)Nc1nc(-c2ccncc2)cs1` [RKI-1447], the “dose-response relationship on myometrial smooth muscle relaxation” value in data set [1] (0 to 10 μM, quiescent (PBS) and contractile (OXY) states) is given as “dose-dependent effects on myometrial smooth muscle relaxation”. Besides, in data set [1], the “effect on HUtSMC contraction … by oxytocin” value is “attenuated myometrial contraction; also recorded: attenuated oxytocin-induced myometrial contractility”; the “effect on myometrial cell contractility in either quiescent or contractile state” value is on record as “altered myometrial contractility”; the “effect on HUtSMC contraction, quiescent state” value is given as “strongly reduced the contraction”. For the same molecule, the “effect on myometrial cell contractility in the presence and absence of oxytocin” value in data set [1] (both states) is “the only drug to prevent myometrial cell contractility in the presence and absence of oxytocin”. The “concentration at emergence of cellular toxicity” value in the data set on HUtSMCs (HUtSMCs) is 50 µM. In the data set with HUtSMCs (over a wide dose-range), the “effect on cell viability” value is listed as “little effect on cell viability”. Further, in the data set on uterine contractility, the “effect on uterine contractility in rats” value was “attenuated uterine contractility”. Also, the “side effects on smooth muscle cells in other organs, particularly cardiotoxicity” value in data set [2] was “minimal effects”.
Take `C[S+]([O-])c1ccc(-c2nc(-c3ccncc3)c(-c3ccc(F)cc3)[nH]2)cc1` (centres unmarked) [SB-203580]: in data set [1], the “effect on HUtSMC contraction … by oxytocin” value is recorded as “increased the contraction”; the “effect on myometrial cell contractility in either quiescent or contractile state” value was “altered myometrial contractility”; the “effect on HUtSMC contraction, quiescent state” value is “significantly induced myometrial cell contraction”.
Take `N#CC(=C(/N)Sc1ccccc1N)/C(C#N)=C(\N)Sc1ccccc1N` [U0126]: in data set [1], the “effect on myometrial cell contractility in either quiescent or contractile state” value is “absence of signal”. Besides, in the data set with preterm labor, the “efficacy in a rat model of preterm labor” value is “demonstrated efficacy”.
Regarding `CN1CCN(Cc2ccc(-c3cnc4[nH]cc(-c5ccc6[nH]ccc6c5)c4c3)cc2)CC1` [URMC-099], in data set [1], the “effect on HUtSMC contraction … by oxytocin” value is recorded as “attenuated myometrial contraction; also recorded: attenuated oxytocin-induced myometrial contractility”; the “effect on myometrial cell contractility in either quiescent or contractile state” value was “altered myometrial contractility”; the “reduction of oxytocin-induced myometrial contractility” value amounted to 15.73%.
Consider `CC(=O)Oc1ccccc1C(=O)O` [aspirin], for which, in the data set on preterm birth, the “reduction of the risk of early preterm birth (before 34 gestational weeks)” value was 25% and the “reduction of the risk of preterm birth (before 37 gestational weeks)” value was 11%.
Consider `[H]/N=C(/N)SCCCn1cc(C2=C(c3cn(C)c4ccccc34)C(=O)NC2=O)c2ccccc21` [bisindolylmaleimide-ix], for which, in data set [1], the “effect on HUtSMC contraction … by oxytocin” value was “attenuated myometrial contraction; also recorded: attenuated oxytocin-induced myometrial contractility”; the “effect on myometrial cell contractility in either quiescent or contractile state” value was “altered myometrial contractility”; the “reduction of oxytocin-induced myometrial contractility” value was 15.73%.
Regarding “IL-1B: cytokine used to mimic tissue-level inflammation at the labor onset”, in data set [3], the “response of Group II genes to treatment” value is on record as “overall not responsive”.
